pIC50: −log10 of the molar value. Structures can show the parent of a compound that is named as a salt.
What was measured:
[1] = tested on: HDAC; assay: Inhibition of isolated HDAC, commercial Fluor de Lys assay (HeLa cell nuclear extract); format: biochemical; conditions: 1 μM inhibitor; average of three determinations
Procedure: This is a facile and rapid 96-well plate-based assay that is suitable for use as a high throughput screen. The reaction mixture contains a HeLa cell nuclear extract and a commercial substrate containing acetylated lysine side chains. The substrate and extract are incubated in the presence of the appropriate concentration of the inhibitor. Deacetylation of the substrate followed by mixing with the provided developer generates a fluorophore. Comparison of inhibited vs. control relative fluorescence using a standard plate reader is employed to determine percent HDAC activity remaining. All determinations can be carried out in triplicate, and reported values can be the average of these determinations.
Compounds were evaluated for their ability to inhibit isolated HDAC at 1 μM in the Fluor de Lys™ assay system.

[2] = tested on: ML-1 human myelocytic leukemia line; assay: Cell viability in ML-1 cells, direct cell count; format: cell-based; conditions: ML1, 3 and 7 days of exposure, read-out: IC50, toxicity to ML-1 cells (direct cell count)
Procedure: ML-1 cells were maintained in RPMI medium supplemented with 10% fetal calf serum, 0.1 mg/mL gentamicin, and 2 mM L-glutamine. 3×10^5 cells/ml were treated with 1 (Wako Pure Chemicals, Richmond, Va.), 2 (Mitsui Pharmaceuticals, Chiba, Japan) and the desired test compound for the concentration and time indicated in the figure legend.
(§1) Compound 19 was evaluated in a series of cell viability studies in the ML-1 human myelocytic leukemia line. The results of these studies are outlined in FIGS. 4-7. Compound 19, as well as the positive controls TSA and MS-275, were compared at concentrations between 0.1 and 100 μM, and cell viability was determined in the ML-1 cultured cell preparation at 3 days (FIG. 4) and 7 days (FIG. 5) using a standard MTT assay. […] In a separate set experiments, cell viability was determined under the same conditions by direct cell count. As before, TSA and MS-275 produced significant toxicity at both 3 and 7 days, again with IC50 values less than 10 μM.

[3] = tested on: ML-1 human myelocytic leukemia line; assay: Cell viability in ML-1 cells, MTT assay; format: cell-based; conditions: ML1, 3 days and 7 days of exposure, 0.1 to 100 μM, read-out: IC50, toxicity to ML-1 cells (MTT)
Description: The well characterized ML-1 human myelocytic leukemia cell line was used to obtain the results presented below in the Examples section. This line has a well characterized response to HDAC inhibitors and is amenable for use in rapid in vitro screening of compounds to evaluate growth inhibitory effects. In addition to the ML-1 cells, the well characterized HCT 116 human colon adenocarcinoma may be used. […]
The MTT (3-[4,5-dimethylthiazol-2-yl]2,5-diphenyl tetrazolium bromide) reduction assay for growth inhibition studies may also be employed. […] HCT 116 cells are seeded at a density of 5×10^4 cells/ml and ML-1 cells are seeded at 2×10^4/ml and are treated for a period of 96 hr prior to dye reduction and plate reading. […]
as §1, with “The results of these studies are outlined in FIGS. 4-7.” left out, “As before, TSA and MS-275 produced significant toxicity at both 3 and 7 days, again with IC50 values less than 10 μM.” left out

[4] = tested on: HDAC; assay: Inhibition of isolated HDAC, commercial Fluor de Lys assay (HeLa cell nuclear extract); format: biochemical; set-up: dose or concentration left out as unconfirmed; conditions: TSA as positive control

O=C(CCCCCC(=O)NCCCNCCCCNCCC(c1ccccc1)c1ccccc1)NO [Compound 70]
Inhibition of HDAC at 1 μM (%) [1]: 46%

Nc1ccccc1NC(=O)c1ccc(CNC(=O)OCc2cccnc2)cc1 [Compound 2, MS-275]
pIC50 [2]: > 5.00
pIC50 [3]: > 5.00
Inhibition of HDAC at 1 μM (%) [1]: 100%

CC(C)(C)c1ccc(CNCCCCNCCCNC(=O)CCCCCCC(=O)NO)cc1 [Compound 15, dihydrobromide]
Inhibition of HDAC at 1 μM (%) [1]: 49.36%

CN(C)c1ccc(CN(CCCCN)C(=O)CCCCCCC(=O)NO)cc1 [Compound 18, 7-{[4-(Amino)butyl]-N-[4-(dimethylaminobenzyl)-carbamoyl]}heptanohydroxamic Acid]
Inhibition of HDAC at 1 μM (%) [1]: 15.6%

CN(C)c1ccc(CNCCCCNC(=O)CCCCC(=O)NO)cc1 [Compound 16, 5-{4-[4-N,N-(Dimethyl)aminobenzyl]amino}butylcarbamoylpentanohydroxamic Acid]
Inhibition of HDAC at 1 μM (%) [1]: 10.32%

CN(C)c1ccc(CCNCCCCNCCCNC(=O)CCCCCCC(=O)NO)cc1 [Compound 68]
Inhibition of HDAC at 1 μM (%) [1]: 46%

O=C(CCCCCCCC(=O)NCCCNCCCCNCCC(c1ccccc1)c1ccccc1)NO [Compound 71]
Inhibition of HDAC at 1 μM (%) [1]: 54%

Cc1ccc(CNCCCCNC(=O)CCCCCCC(=O)NO)cc1 [Compound 17, 7-{4-[4-(Methyl)benzyl]aminobutyl}carbamoylheptanohydroxamic Acid]
Inhibition of HDAC at 1 μM (%) [1]: 53.2%

CC(/C=C/C(=O)NO)=C\[C@@H](C)C(=O)c1ccc(N(C)C)cc1 [Compound 1, trichostatin]
pIC50 [2]: > 5.00
pIC50 [3]: > 5.00
Inhibition of HDAC at 1 μM (%) [1]: 100%

CN(C)c1ccc(CNCCCCNC(=O)CCCCCCC(=O)NO)cc1 [Compound 12, 7-{4-[4-N,N-(Dimethylamino)benzyl]aminobutyl}-carbamoylheptanohydroxamic Acid]
Inhibition of HDAC at 1 μM (%) [1]: 33.89%

Cc1ccc(CNCCCCNC(=O)CCCCC(=O)NO)cc1 [Compound 7, 5-{4-[4-(Methyl)benzyl]aminobutyl}carbamoylpentanohydroxamic Acid]
Inhibition of HDAC at 1 μM (%) [1]: 44.17%

O=C(CCCCCCC(=O)NCCCNCCCNCCCNCCC(c1ccccc1)c1ccccc1)NO [Compound 67]
Inhibition of HDAC at 1 μM (%) [1]: 55%

O=C(CCCCCCCCC(=O)NCCCNCCCCNCCC(c1ccccc1)c1ccccc1)NO [Compound 69]
Inhibition of HDAC at 1 μM (%) [1]: 73%

O=C(CCCCC(=O)NCCCCN(Cc1ccccc1-c1ccccc1)Cc1ccccc1-c1ccccc1)NO [Compound 10]
Inhibition of HDAC at 1 μM (%) [1]: 3.74%

O=C(CCCCC(=O)NCCCCNCc1ccccc1-c1ccccc1)NO [Compound 5, 5-{4-[2-(Phenyl)benzyl]aminobutyl}carbamoylpentanohydroxamic Acid]
Inhibition of HDAC at 1 μM (%) [1]: 16.34%

O=C(CCCCC(=O)NCCCNCCCCNCCC(c1ccccc1)c1ccccc1)NO [Compound 20, 15-N-[4-(3,3-diphenyl)propyl]amino-6-oxo-7,11-diazapentadecanohydroxamic Acid dihydrobromide]
Inhibition of HDAC at 1 μM (%) [1]: 19.75%

O=C(CCCCC(=O)NCCCNCCCNCCCNCCCNCC1CCCCCC1)NO [Compound 9, 22-(N-[2-(Cycloheptyl)methyl]amino)-6-oxo-7,11,15,19-tetraazadocosanohydroxamic Acid]
Inhibition of HDAC at 1 μM (%) [1]: 41.03%

CN(C)c1ccc(CN(CCCNCCCCN)C(=O)CCCCCCC(=O)NO)cc1 [Compound 72]
Inhibition of HDAC at 1 μM (%) [1]: 58%

CN(C)c1ccc(CN(CCCNCCCCN)C(=O)CCCCC(=O)NO)cc1 [Compound 14]
Inhibition of HDAC at 1 μM (%) [1]: 59.99%
Dose-response for inhibition of HDAC (relative potency) [4]: essentially equipotent

CC(C)(C)c1ccc(CNCCCCNCCCNC(=O)CCCCC(=O)O)cc1 [Compound 13]
Inhibition of HDAC at 1 μM (%) [1]: 1.48%

CC(C)(C)c1ccc(CNCCCCNCCCNC(=O)CCCCC(=O)NO)cc1 [Compound 11, 15-N-[(4-tert-Butyl)benzyl]amino-6-oxo-7,11-diazapentadecanohydroxamic Acid dihydrobromide]
Inhibition of HDAC at 1 μM (%) [1]: 74.86%
Dose-response for inhibition of HDAC (relative potency) [4]: essentially equipotent

Source: US20090182019A1, “Histone deacetylase inhibitors” (The Johns Hopkins University, priority 2005, published 2009)
